Measurements: the NIST ThermoML archive (doi:10.1021/je800622e)
± gives the expanded uncertainty stated by the source.

Test: mn = molality of the nth substance listed, in mol/kg
Details: 298.15 K, 101 kPa, Liquid; for mass density: Pycnometric method; for molar conductivity: Alternating current cell with electrodes

| SMILES | mass density (m1 = 0.02) | mass density (m1 = 0.06) | mass density (m1 = 0.1) | mass density (m1 = 0.15) | mass density (m1 = 0.2) | mass density (m1 = 0.25) | molar conductivity (m1 = 0.05) | molar conductivity (m1 = 0.1) | molar conductivity (m1 = 0.15) | molar conductivity (m1 = 0.25) | molar conductivity (m1 = 0.5) | molar conductivity (m1 = 0.75) | molar conductivity (m1 = 1) | mass density (m1 = 0.05) | mass density (m1 = 0.5) | mass density (m1 = 0.75) | mass density (m1 = 1) |
| --- | --- | --- | --- | --- | --- | --- | --- | --- | --- | --- | --- | --- | --- | --- | --- | --- | --- |
| OC[C@H]1O[C@@](CO)(O[C@H]2O[C@H](CO)[C@@H](O)[C@H](O)[C@H]2O)[C@@H](O)[C@@H]1O [D-sucrose] + O | 999.72 ± 0.88 kg/m3 | 1004.87 ± 0.89 kg/m3 | 1009.9 ± 0.89 kg/m3 | 1016.06 ± 0.9 kg/m3 | 1022.12 ± 0.91 kg/m3 | 1027.95 ± 0.91 kg/m3 | – | – | – | – | – | – | – | – | – | – | – |
| CCCCn1cc[n+](C)c1.F[B-](F)(F)F [1-butyl-3-methylimidazolium tetrafluoroborate] + O | – | – | 1000.85 ± 0.89 kg/m3 | 1002.63 ± 0.9 kg/m3 | – | 1006.1 ± 0.9 kg/m3 | 0.00906 ± 0.00054 S·m2/mol | 0.0085 ± 0.00051 S·m2/mol | 0.008 ± 0.00048 S·m2/mol | 0.00714 ± 0.00043 S·m2/mol | 0.00547 ± 0.00033 S·m2/mol | 0.00419 ± 0.00025 S·m2/mol | 0.00389 ± 0.00023 S·m2/mol | 999 ± 0.89 kg/m3 | 1014.2 ± 0.91 kg/m3 | 1021.57 ± 0.91 kg/m3 | 1028.25 ± 0.92 kg/m3 |
